Patent publication US20260042754A1, “Substituted Bicyclic Heteroaryl Sulfonamide Derivatives for the Treatment of Cancer” (NODUS ONCOLOGY LIMITED, priority 2022, published 2026)
Read-outs that look alike come from different tables or passages of the source.

Legend:
[1] = biological target: Recombinant His-tagged human PARG protein (Homo sapiens (Human), UniProt Q86W56); assay: PARG enzymatic assay (TFMU-ADPr fluorescence); assay type: biochemical; conditions: 1 nM enzyme, 200 μM TFMU-ADPr, read after 30 minutes
Recombinant His-tagged human PARG protein, sequence (Q86W56 whole entry): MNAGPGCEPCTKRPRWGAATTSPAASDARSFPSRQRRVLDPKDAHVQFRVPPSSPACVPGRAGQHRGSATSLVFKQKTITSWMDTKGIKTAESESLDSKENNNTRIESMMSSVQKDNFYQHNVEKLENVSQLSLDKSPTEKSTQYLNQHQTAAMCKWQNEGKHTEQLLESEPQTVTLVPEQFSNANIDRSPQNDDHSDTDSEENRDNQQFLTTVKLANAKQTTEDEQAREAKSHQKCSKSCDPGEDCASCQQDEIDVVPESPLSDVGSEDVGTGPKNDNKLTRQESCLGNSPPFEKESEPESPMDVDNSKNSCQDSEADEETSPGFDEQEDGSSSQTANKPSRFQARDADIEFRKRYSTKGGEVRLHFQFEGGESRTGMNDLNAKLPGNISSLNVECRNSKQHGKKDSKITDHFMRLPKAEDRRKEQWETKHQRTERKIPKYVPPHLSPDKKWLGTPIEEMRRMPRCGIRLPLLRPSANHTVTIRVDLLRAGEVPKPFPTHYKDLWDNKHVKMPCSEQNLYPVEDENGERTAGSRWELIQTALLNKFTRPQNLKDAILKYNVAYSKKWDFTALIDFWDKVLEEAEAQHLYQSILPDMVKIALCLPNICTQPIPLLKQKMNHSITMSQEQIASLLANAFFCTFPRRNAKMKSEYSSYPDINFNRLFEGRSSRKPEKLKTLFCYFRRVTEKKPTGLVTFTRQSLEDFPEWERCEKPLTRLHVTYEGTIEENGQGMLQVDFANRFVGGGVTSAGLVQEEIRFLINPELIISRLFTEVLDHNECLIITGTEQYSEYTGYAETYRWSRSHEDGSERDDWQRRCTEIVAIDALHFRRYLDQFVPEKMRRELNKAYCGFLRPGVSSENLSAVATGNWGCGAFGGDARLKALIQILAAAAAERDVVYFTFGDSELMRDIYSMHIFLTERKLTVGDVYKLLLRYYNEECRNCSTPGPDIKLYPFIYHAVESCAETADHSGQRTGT
Experimental: Inhibition of PARG enzymatic activity by compounds was determined as follows: Recombinant His-tagged human PARG protein expressed in Sf21 insect cells (Adipogen AG, #40T-0022) was aliquoted and stored at −80° C. until use. The artificial enzyme substrate 4-(trifluoromethyl)umbelliferone (TFMU)-ADPr was prepared essentially as described (Drown B S et al, Cell Chemical Biology 2018) and stored at −20° C. as 10 mM stock solutions in DMSO (dimethyl sulfoxide) until use. For reactions, typical final concentration of the enzyme was 1 nM and of the TFMU-ADPr 200 μM. Reactions were carried out in black 384-well low volume round bottom assay plates (Corning, #4514) in a final volume of 10 μL. To this end, PARG was diluted to 1.67 nM in reaction buffer (50 mM K2HPO4, 50 mM KCl, 10 mM β-mercaptoethanol, pH 7.4) and 6 μL were dispensed per assay well using a multichannel pipette. Then compound was dispensed into each well using an Echo dispenser (BeckmanCoulter) to yield the pre-specified final concentration of the range of concentrations to be tested (typically 8-point serial concentrations ranging from either from 0.01 to 10 μM, or from 0.001 to 1 μM, or from 0.0001 to 0.1 μM), and being volume-corrected with 100% DMSO (0.5% final DMSO concentration in reaction mixtures). Plates were mixed, and after 15 minutes 4 μL TFMU-ADPr was added into each well using a multichannel pipette followed by brief mixing. Fluorescence intensity signals were then measured after 30 minutes on an EnVision microplate reader (PerkinElmer) using 380/10 nm and 535/25 nm filters for the excitation and emission, respectively (gain: 150). The assay window was set using DMSO control (top) and a control containing no PARG enzyme (bottom). Delta values were plotted as concentration-response curves fitted to a sigmoidal 4-parameter logistic model to calculate IC50 values (Scigilian Analyze).

[2] = biological target: human PARG (PARG-NanoLuc fusion in HEK293T cells) (Homo sapiens (Human), UniProt Q86W56); assay: PARG NanoBRET-based cellular target engagement assay; assay type: cell-based; conditions: HEK293T cells transfected with PARG-NanoLuc, NanoBRET probe 0.89 μM, 2 hours; read-out: PARG TE IC50
human PARG (PARG-NanoLuc fusion in HEK293T cells), sequence (Q86W56 whole entry, the tested form may be a part): as the sequence (Q86W56 whole entry) above
Experimental: PARG Nano-luciferase construct: The PARG-NanoLuc® fusion vector was generated by Promega, by inserting the full length human PARG cDNA sequence encoding the 976 amino acid protein (Gene ID: 8505, UniProt: Q86W56) into the pNLF1-C [CMV/Hygro] vector (C-terminal fusions with NanoLuc® enzyme).
PARG target engagement tracer synthesis: The NanoBRET tracer for PARG was prepared following a previously reported general tracer synthesis procedure.
PARG Probe Displacement Assay Using NanoBRET: HEK293T (DSMZ #ACC 635) cells transiently transfected with the PARG-NanoLuc fusion construct were resuspended in phenol red-free OptiMEM (Gibco #11058-021) to a concentration of 2.4×10^5 cells/mL. 9 μL per well were then added to a white 384-well low volume microplate (Greiner #784080) and incubated for 24 hours under standard growth conditions.
Then compound was dispensed into each well using an Echo dispenser (BeckmanCoulter) to yield the pre-specified final concentration of the range of concentrations to be tested (typically 8-point serial concentrations ranging from either from 0.01 to 10 μM, or from 0.001 to 1 μM, or from 0.0001 to 0.1 μM), and being volume-corrected with 100% DMSO (0.5% final DMSO concentration in reaction mixtures).
After mixing and an incubation at room temperature for 15 min 1 μl of the NanoBRET probe (at 0.89 μM final concentration) was added to the microplate using a multichannel pipette. The plate was mixed and incubated in a 5% CO2 environment at 37° C. for 2 hours, and then 5 μL per well of a solution consisting of a 1:31.25 dilution of Nano-Glo substrate (Promega) and a 1:500 dilution of NanoLuc extracellular inhibitor (Promega) in phenol red-free OptiMEM was added to each well followed by another mixing step. Filtered luminescence was measured on an EnVision plate reader (PerkinElmer) equipped with a 460 nm filter (donor) and a 645 nm filter (acceptor). BRET ratios were plotted as concentration-response curves fitted to a sigmoidal 4-parameter logistic model to calculate IC50 values (Scigilian Analyze).

[3] = system: NCI-H1650; assay: Modified cell proliferation assay (CellTiter-Glo), NCI-H1650; assay type: cell-based; conditions: modified protocol, 384-well, 300 cells per well, 120 h, highest concentration tested 30000 nM, read-out: NCI-H1650 GI50 (high PARG dependency)
Experimental: The cell proliferation assay protocol was modified and used for RMUG-S for Examples 12-44, and subsequently used to test Examples 1-44 in the NCI-H1650 cell line.
NCI-H1650 (ATCC, #CRL-5883) or RMUG-S were seeded on day 1 at 300 cells per well in a 384-well plate (Greiner, #781080) that assure assay linearity and optimal signal intensity in 25 μL of RPMI1640 media (Pan Biotech, #P04-22100) containing 10% FCS (Capricorn, #FBS-11A; Lot. CP22-5141) and 1% Glutamine (Pan Biotech, #P04-80100). After incubation for 24 h in humidified chambers at 37° C./5% CO2, compounds/DMSO were dispensed at different concentrations using an Echo 520 (Beckman Coulter). Cells were further incubated for 120 h at 37° C. and 5% CO2. Cells treated with the compound vehicle DMSO were used as negative controls and cells treated with 10 μM Staurosporine (LC Laboratories, #S-9300) served as positive controls.
At day 6 the CellTiter Glo Reagent was prepared according to the instructions of the kit (Promega Inc.): Reagent was mixed 1:1 with cell culture medium. Thereon, mixture and assay plates were equilibrated at room temperature for 20 min. Equal volumes of the reagent-medium-mixture were added to the volume of culture medium present in each well. The plates were mixed at […] for 2 minutes on an orbital shaker (Timix5, Edmund Buehler GmbH). The microplates were then incubated at room temperature for 10 minutes for stabilization of the luminescent signal. Following incubation, the luminescence was recorded on a Victor X5 microplate reader (Perkin Elmer) using a 200 ms integration time. The data was then analyzed with Excel using the XLFIT Plugin (dose response Fit 205) for determination of the concentration necessary for half-maximal inhibition (i.e. the inflection point of the fitted curve).
As quality control the Z′-factor was calculated from 16 positive and negative control values. Only assay results showing a Z′-factor≥0.5 were used for further analysis.

IC50 [1] [µM] | IC50 [2] [µM] | GI50 ([3]; Homo sapiens, NCI-H1650) [µM] | SMILES | GI50 [3] [µM]
< 0.03 | < 0.03 |  | CO/N=c1\[nH]c2c(N3CCN(C(=O)C(F)(F)C4(O)CCC4)[C@H](C)C3)cc(S(=O)(=O)NC3(C)CC3)cc2c(=O)n1Cc1cnn(C)c1 (single isomer, unassigned) [Example 43] | 
< 0.03 | < 0.03 |  | CO/N=c1\[nH]c2c(N3CCN(C(=O)N(C)C4CC4)[C@H](C)C3)cc(S(=O)(=O)NC3(C)CC3)cc2c(=O)n1Cc1cnn(C)c1 (single isomer, unassigned) [Example 44] | 
< 0.03 | 0.03 to 0.099 | > 2 | CO/N=c1\[nH]c2c(Cl)cc(S(=O)(=O)NC3(C)CC3)cc2c(=O)n1Cc1cnn(C)c1 [Example 4, 8-chloro-2-methoxyimino-N-(1-methylcyclopropyl)-3-[(1-methylpyrazol-4-yl)methyl]-4-oxo-1H-quinazoline-6-sulfonamide] | 
0.1 to 1 | 0.1 to 1 |  | CO/N=c1\[nH]c2ccc(S(=O)(=O)NC3(C)CC3)cc2c(=O)n1Cc1cnn(C(F)(F)F)c1 [Example 6, 2-methoxyimino-N-(1-methylcyclopropyl)-4-oxo-3-[[1-(trifluoromethyl)pyrazol-4-yl]methyl]-1H-quinazoline-6-sulfonamide] | 
< 0.03 | 0.03 to 0.099 | > 2 | CON=c1[nH]c2ccc(S(=O)(=O)NC3(C#N)CC3)cc2c(=O)n1Cc1cnn(C)c1 [Example 9, N-(1-cyanocyclopropyl)-2-methoxyimino-3-[(1-methylpyrazol-4-yl)methyl]-4-oxo-1H-quinazoline-6-sulfonamide] | 
< 0.03 | 0.03 to 0.099 | 0.5 to 2 | CCO/N=c1\[nH]c2ccc(S(=O)(=O)NC3(C)CC3)cc2c(=O)n1Cc1cnn(C)c1 [Example 10, 2-ethoxyimino-N-(1-methylcyclopropyl)-3-[(1-methylpyrazol-4-yl)methyl]-4-oxo-1H-quinazoline-6-sulfonamide] | 
< 0.03 | 0.03 to 0.099 |  | CC(C)O/N=c1\[nH]c2ccc(S(=O)(=O)NC3(C)CC3)cc2c(=O)n1Cc1cnn(C)c1 [Example 11, 2-isopropoxyimino-N-(1-methylcyclopropyl)-3-[(1-methylpyrazol-4-yl)methyl]-4-oxo-1H-quinazoline-6-sulfonamide] | 
< 0.03 | < 0.03 | < 0.5 | CO/N=c1\[nH]c2c(N3CCN(C(C)=O)[C@H](C)C3)cc(S(=O)(=O)NC3(C)CC3)cc2c(=O)n1Cc1cnn(C)c1 [Example 12, (2E)-2-methoxyimino-N-(1-methylcyclopropyl)-3-[(1-methylpyrazol-4-yl)methyl]-4-oxo-8-[(3R)-4-acetyl-3-methyl-piperazin-1-yl]-1H-quinazoline-6-sulfonamide] | 
< 0.03 | < 0.03 | < 0.5 | CO/N=c1\[nH]c2c(-c3ccc(C(=O)N(C)C)c(C)c3)cc(S(=O)(=O)NC3(C)CC3)cc2c(=O)n1Cc1cnn(C)c1 [Example 14, (E)-4-(2-(methoxyimino)-3-((1-methyl-1H-pyrazol-4-yl)methyl)-6-(N-(1-methylcyclopropyl)sulfamoyl)-4-oxo-1,2,3,4-tetrahydroquinazolin-8-yl)-N,N,2-trimethylbenzamide] | 
< 0.03 | 0.03 to 0.099 |  | CO/N=c1\[nH]c2c(-c3ccc(C4(O)CCC4=O)cc3)cc(S(=O)(=O)NC3(C)CC3)cc2c(=O)n1Cc1cnn(C)c1 (stereo not shown) [Example 22, (E)-8-(4-(1-hydroxy-2-oxocyclobutyl)phenyl)-2-(methoxyimino)-3-((1-methyl-1H-pyrazol-4-yl)methyl)-N-(1-methylcyclopropyl)-4-oxo-1,2,3,4-tetrahydroquinazoline-6-sulfonamide] | 
 |  | < 0.5 | CO/N=c1\[nH]c2c(N3CCN(C(=O)C4(C(F)(F)F)CC4)[C@H](C)C3)cc(S(=O)(=O)NC3(C)CC3)cc2c(=O)n1Cc1cnn(C)c1 [Example 32, (R,E)-2-(methoxyimino)-3-((1-methyl-1H-pyrazol-4-yl)methyl)-8-(3-methyl-4-(1-(trifluoromethyl)cyclopropane-1-carbonyl)piperazin-1-yl)-N-(1-methylcyclopropyl)-4-oxo-1,2,3,4-tetrahydroquinazoline-6-sulfonamide] | 
< 0.03 | < 0.03 |  | CO/N=c1\[nH]c2c(N3CCN(C(=O)C(F)(F)F)[C@H](C)C3)cc(S(=O)(=O)NC3(C)CC3)cc2c(=O)n1Cc1cnn(C)c1 [Example 42, (R,E)-2-(methoxyimino)-3-((1-methyl-1H-pyrazol-4-yl)methyl)-8-(3-methyl-4-(2,2,2-trifluoroacetyl)piperazin-1-yl)-N-(1-methylcyclopropyl)-4-oxo-1,2,3,4-tetrahydroquinazoline-6-sulfonamide] | 

SMILES | IC50 [1] [µM] | IC50 [2] [µM] | GI50 ([3]; Homo sapiens, NCI-H1650) [µM] | GI50 [3] [µM]
CO/N=c1\[nH]c2c(C3=C[C@@H](C)NCC3)cc(S(=O)(=O)NC3(C)CC3)cc2c(=O)n1Cc1cnn(C)c1 [Example 13, (R,E)-2-(methoxyimino)-8-(6-methyl-1,2,3,6-tetrahydropyridin-4-yl)-3-((1-methyl-1H-pyrazol-4-yl)methyl)-N-(1-methylcyclopropyl)-4-oxo-1,2,3,4-tetrahydroquinazoline-6-sulfonamide/(R,E)-2-(methoxyimino)-8-(2-methyl-1,2,3,6-tetrahydropyridin-4-yl)-3-((1-methyl-1H-pyrazol-4-yl)methyl)-N-(1-methylcyclopropyl)-4-oxo-1,2,3,4-tetrahydroquinazoline-6-sulfonamide] | < 0.03 | 0.03 to 0.099 |  | 0.5 to 2
